Read-outs that look alike come from different tables or passages of the source.

Data set [1] is described as follows: Determination of the log P values (formic acid method) by reverse-phase HPLC. It counts as physicochemical. The following applies: reverse-phase HPLC column (C 18), reverse-phase column (C 18), acidic range (pH 3.4), 55° C. As for the experimental part:
1) Description of Method for Determination of the log P Values (Formic Acid Method)
The log P values given in the table were determined in accordance with EEC Directive 79/831 Annex V.A8 by HPLC (High Performance Liquid Chromatography) using a reverse-phase column (C 18). Temperature: 55° C.
Eluents for determination in the acidic range (pH 3.4):
Eluent A: acetonitrile+1 ml of formic acid/liter. Eluent B: water+0.9 ml of formic acid/liter.
Gradient: from 10% eluent A/90% eluent B to 95% eluent A/5% eluent B in 4.25 min.
The calibration was effected with unbranched alkan-2-ones (having 3 to 16 carbon atoms) with known log P values (log P values determined on the basis of the retention times by linear interpolation between two successive alkanones). The lambda max values were determined in the maxima of the chromatographic signals using the UV spectra from 200 nm to 400 nm.

The subject of data set [2] is green peach aphid (Myzus persicae). The data set can be described thus: Myzus test (spray treatment). The following applies: 500 g/ha, spray on Chinese cabbage leaf discs, after 6 days; 100% = all aphids killed. It counts as in vivo. How it is done: Myzus Test (Spray Treatment) Solvent: 78 parts by weight of acetone • • 1.5 parts by weight of dimethylformamide Emulsifier: 0.5 part by weight of alkylaryl polyglycol ether To prepare an appropriate active ingredient preparation, 1 part by weight of active ingredient is mixed with the stated amounts of solvent and emulsifier, and the concentrate is diluted with emulsifier-containing water to the desired concentration. Discs of Chinese cabbage (Brassica pekinensis) infested by all stages of the green peach aphid (Myzus persicae) are sprayed with an active ingredient preparation of the desired concentration. After 6 days, the efficacy in % is determined. 100% means that all of the aphids have been killed; 0% means that none of the aphids have been killed.

In a further data set the test system is Boophilus microplus. Nature of the data set: Boophilus microplus test (injection). It counts as in vivo. The following applies: 20 μg/animal, injection into the abdomen, after 7 days; 100% = none of the ticks has laid fertile eggs. As for the experimental part:
The NMR spectra were • a) determined with a Bruker Avance 400 fitted with a flow probe head (volume 60 μl). The solvent used was CD3CN or d6-DMSO, with tetramethylsilane (0.00 ppm) used as a reference. • b) determined with a Bruker Avance II 600. The solvent used was CD3CN or d6-DMSO, with tetramethylsilane (0.00 ppm) used as a reference. The splitting of the signals was described as follows: s (singlet), d (doublet), t (triplet), q (quartet), quin (quintet), m (multiplet). Boophilus Microplus Test (Injection)
Solvent: dimethyl sulphoxide
To prepare an appropriate active ingredient formulation, 10 mg of active ingredient are mixed with 0.5 ml of solvent and the concentrate is diluted with solvent to the desired concentration. The active ingredient solution is injected into the abdomen (Boophilus microplus), and the animals are transferred into dishes and stored in a climate-controlled room. The activity is assessed by laying of fertile eggs.
After 7 days, the efficacy in % is determined. 100% means that none of the ticks has laid any fertile eggs.

`CCS(=O)(=O)NC(=O)c1cnn(-c2cccnc2)c1` [Compound 19]: in data set [1] (table, read-out: logP (HCOOH)), the chromatographic logP was 0.69.
Regarding `Cc1nc(-c2cccnc2)sc1NC(=O)Cc1ncccn1` [Compound 2, N-[4-Methyl-2-(pyridin-3-yl)-1,3-thiazol-5-yl]-2-(pyrimidin-2-yl)acetamide], in data set [2], the “efficacy in % (aphids killed)” value was 100%. The chromatographic logP in data set [1] (read-out: log P (HCOOH)) is 0.74.
As for `O=C(NS(=O)(=O)C(F)(F)F)c1cnn(-c2cccnc2)c1` [Compound 15], the chromatographic logP in data set [1] (table, read-out: logP (HCOOH)) worked out at 0.67.
On the same count and under the same terms, as for `CS(=O)(=O)NC(=O)c1cnn(-c2cccnc2)c1` [Compound 16], the figure is 0.41; as for `Cc1nc(-c2cncc(F)c2)sc1C(=O)NS(C)(=O)=O` [Compound 20], 1.08; as for `O=C(NS(=O)(=O)c1ccccc1)c1cnn(-c2cncc(F)c2)c1` [Compound 17], 1.81.
Consider `Cc1nc(-c2cccnc2)sc1S(=O)(=O)N(C)C` [Compound 3], for which the “efficacy in % (aphids killed)” value in data set [2] was found to be 100%. Further, in data set [1] (read-out: log P (HCOOH)), the chromatographic logP amounted to 1.86.
Turning to `O=C(NS(=O)(=O)C1CC1)c1cnn(-c2cncc(F)c2)c1` [Compound 8], in data set [2], the “efficacy in % (aphids killed)” value is 90%. Further, the chromatographic logP in data set [1] (table, read-out: logP (HCOOH)) worked out at 1.28.
As for `Cc1nc(-c2cccnc2)sc1NC(=O)CC(F)(F)F` [Compound 1, 3,3,3-Trifluoro-N-[4-methyl-2-(pyridin-3-yl)-1,3-thiazol-5-yl]propanamide], in data set [2], the “efficacy in % (aphids killed)” value is 80%. The chromatographic logP in data set [1] (read-out: log P (HCOOH)) was determined as 1.47. The “efficacy in % (laying of fertile eggs)” value in the data set with Boophilus microplus was determined as 100%.
In the case of `Cc1nn(-c2cccnc2)cc1C(=O)NS(=O)(=O)c1ccccc1` [Compound 6], the “efficacy in % (aphids killed)” value in data set [2] is given as 100%. Moreover, the chromatographic logP in data set [1] (table, read-out: logP (HCOOH)) was 1.71.
Turning to `Cc1nc(-c2cccnc2)sc1C(=O)NS(C)(=O)=O` [Compound 12], the chromatographic logP in data set [1] (table, read-out: logP (HCOOH)) is 0.54.
For the compound `CCOC(=O)c1cnn(-c2cccnc2)c1` [Ethyl 1-(pyridin-3-yl)-1H-pyrazole-4-carboxylate], in data set [1] (read-out: log P (HCOOH)), the chromatographic logP worked out at 1.55.
For `O=C(NS(=O)(=O)c1ccccc1)c1cnn(-c2cccnc2)c1` [Compound 9], in data set [1] (table, read-out: logP (HCOOH)), the chromatographic logP amounted to 1.39.
The same measure, in the same setting: under `Cc1nc(-c2cccnc2)sc1S(=O)(=O)NCc1ncccn1` [Compound 10] stands 1.35.
Same read-out and setting: under `Cc1nn(-c2cccnc2)cc1C(=O)NS(C)(=O)=O` [Compound 13] stands 0.81; under `O=C(NS(=O)(=O)C1CC1)c1cnn(-c2cccnc2)c1` [Compound 11], 0.83.
With `CN(C)S(=O)(=O)NC(=O)c1cnn(-c2cncc(F)c2)c1` [Compound 7], the “efficacy in % (aphids killed)” value in data set [2] worked out at 100%. Also, the chromatographic logP in data set [1] (table, read-out: logP (HCOOH)) amounted to 1.42.
As for `CCS(=O)(=O)NC(=O)c1cnn(-c2cncc(F)c2)c1` [Compound 21], the chromatographic logP in data set [1] (table, read-out: logP (HCOOH)) came out at 1.24.
Consider `CN(C)S(=O)(=O)NC(=O)c1cnn(-c2cccnc2)c1` [Compound 4, N-(Dimethylsulphamoyl)-1-(pyridin-3-yl)-1H-pyrazole-4-carboxamide], for which the “efficacy in % (aphids killed)” value in data set [2] is on record as 90%. The chromatographic logP in data set [1] (read-out: log P (HCOOH)) is 1.03.
With `CS(=O)(=O)NC(=O)c1cnn(-c2cncc(F)c2)c1` [Compound 18], the chromatographic logP in data set [1] (table, read-out: logP (HCOOH)) was determined as 0.9.
For the compound `COCCNS(=O)(=O)c1sc(-c2cccnc2)nc1C` [Compound 14], the chromatographic logP in data set [1] (table, read-out: logP (HCOOH)) was 1.51.
Consider `O=S(=O)(Nc1cnn(-c2cccnc2)c1)C(F)F` [Compound 5, 1,1-Difluoro-N-[1-(pyridin-3-yl)-1H-pyrazol-4-yl]methanesulphonamide], for which the chromatographic logP in data set [1] (read-out: log P (HCOOH)) stood at 1.01.

Source of the values: patent US9339032B2, “Heterocyclic compounds as pesticides” (Bayer Intellectual Property GmbH, priority 2010, dated 2016).
